The text below walks through data of US9682977B2, “Bicyclic heteroaryl indole analogues useful as ROR gamma modulators” (Glenmark Pharmaceuticals S.A., priority 2013, dated 2017).

Like-named read-outs stand apart in the source and are kept apart here. A value given as a limit tells only on which side of the number the result lay.

This assay concerns the target T1, GST-tagged ROR gamma ligand binding domain (LBD) (Homo sapiens, UniProt P51449).
T1 construct: purchased Invitrogen
T1 sequence (P51449 269-508 limits assumed): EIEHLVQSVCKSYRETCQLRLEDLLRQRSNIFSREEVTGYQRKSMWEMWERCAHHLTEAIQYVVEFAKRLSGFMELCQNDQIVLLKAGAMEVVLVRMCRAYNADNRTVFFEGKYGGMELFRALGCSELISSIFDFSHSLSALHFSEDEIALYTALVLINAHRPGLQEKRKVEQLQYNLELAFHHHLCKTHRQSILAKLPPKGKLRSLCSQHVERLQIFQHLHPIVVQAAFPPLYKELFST
Kind of assay: TR-FRET assay for ROR gamma (Lantha Screen, co-activator peptide recruitment). As to conditions: for inhibition at 1 µM: read-out: % inhibition at 1 μM; for inhibition at 10 µM: read-out: % inhibition at 10 μM. The format is biochemical. (In general: In TR-FRET formats the signal depends on donor and acceptor labels being close together.)

[1] abbreviates: class symbols, from dose response curve, read-out: IC50 value.
[2] abbreviates: compound concentration 1 μM, TR-FRET ratio 520/495, percent of control.
The mark [3] stands for this setting: compound concentration 10 μM, TR-FRET ratio 520/495, percent of control.

With `O=C(O)c1ccc(-n2nc(Oc3c(Cl)cccc3Cl)c3ccccc32)cc1` [Example 5, 4-[3-(2,6-Dichlorophenoxy)-1H-indazol-1-yl]benzoic acid], under setting [1], the half-inhibitory concentration (IC50) was below 50 nM. Besides, the inhibition at 1 µM under setting [2] turned out to be 98.4%. Further, the inhibition at 10 µM under setting [3] was 99%.
In the case of `CCCOC(=O)c1ccc(-n2nc(Oc3c(Cl)cccc3C(F)(F)F)c3ccccc32)c(F)c1` [Example 46, Propyl 4-{3-[2-chloro-6-(trifluoromethyl)phenoxy]-1H-indazol-1-yl}-3-fluorobenzoate], under setting [2], the inhibition at 1 µM stood at 10.9%. The inhibition at 10 µM under setting [3] is 28.5%.
For the compound `O=C(O)c1ccc(-n2nc(Oc3c(Cl)cccc3C3CC3)c3cccc(F)c32)c(F)c1` [Example 14, 4-[3-(2-Chloro-6-cyclopropylphenoxy)-7-fluoro-1H-indazol-1-yl]-3-fluorobenzoic acid], under setting [1], the IC50 was below 50 nM. Moreover, the inhibition at 1 µM under setting [2] was 91.4%. Also, the inhibition at 10 µM under setting [3] was found to be 91.2%.
Turning to `CCCCOC(=O)c1ccc(-n2nc(Oc3c(Cl)cccc3C(F)(F)F)c3ccccc32)c(F)c1` [Example 47, Butyl 4-{3-[2-chloro-6-(trifluoromethyl)phenoxy]-1H-indazol-1-yl}-3-fluorobenzoate], under setting [2], the inhibition at 1 µM turned out to be 52%. Further, the inhibition at 10 µM under setting [3] came out at 91.9%.
In the case of `O=C(O)c1ccc(-n2nc(Oc3c(Cl)cccc3C(F)F)c3cccc(F)c32)c(F)c1` [Example 12, 4-{3-[2-Chloro-6-(difluoromethyl)phenoxy]-7-fluoro-1H-indazol-1-yl}-3-fluorobenzoic acid], under setting [1], the IC50 was below 50 nM. The inhibition at 1 µM under setting [2] was determined as 94.4%. For the same compound, the inhibition at 10 µM under setting [3] was found to be 95.1%.
As for `CCCOC(=O)c1ccc(-n2cc(C(=O)c3c(Cl)cccc3Cl)c3cccc(F)c32)c(F)c1` [Example 43, Propyl 4-[3-(2,6-dichloro-benzoyl)-7-fluoro-1H-indol-1-yl]-3-fluorobenzoate], the inhibition at 1 µM was 6.99% and the inhibition at 10 µM was 1.02%.
As for `O=C(O)c1ccc(-n2cc(C(=O)c3c(Cl)cccc3Cl)c3ccccc32)cc1` [Example 16, 4-{3-[(2,6-Dichlorophenyl)carbonyl]-1H-indol-1-yl}benzoic acid], the half-maximal inhibitory concentration (IC50) is below 50 nM, the inhibition at 1 µM amounted to 96% and the inhibition at 10 µM came to 97.2%.
As for `O=C(O)c1ccc(-n2nc(Oc3ccc(Cl)cc3C(F)(F)F)c3ccccc32)c(F)c1` [Example 9, 4-{3-[4-Chloro-2-(trifluoromethyl)phenoxy]-1H-indazol-1-yl}-3-fluorobenzoic acid], the half-maximal inhibitory concentration (IC50) under setting [1] is above 100 nM. Also, the inhibition at 1 µM under setting [2] worked out at 86.5%. In addition, the inhibition at 10 µM under setting [3] was determined as 96.9%.
With `CN(C)C(=O)c1ccc2c(C(=O)c3c(Cl)cccc3Cl)cn(-c3ccc(C(=O)O)cc3F)c2c1` [Example 26, 4-[3-(2,6-Dichloro-benzoyl)-6-dimethylcarbamoyl-indol-1-yl]-3-fluoro-benzoic acid], the inhibition at 1 µM worked out at 31.3% and the inhibition at 10 µM worked out at 33.7%.
For the compound `O=C(O)c1ccc(-n2cc(C(=O)c3c(F)cccc3F)c3ccccc32)cc1` [Example 18, 4-{3-[(2,6-Difluorophenyl)carbonyl]-1H-indol-1-yl}benzoic acid], the half-inhibitory concentration (IC50) was 50 to 100 nM, the inhibition at 1 µM came out at 81% and the inhibition at 10 µM is 94.5%.
In the case of `O=C(O)c1ccc(-n2cc(C(=O)c3ccccc3Cl)c3ccccc32)c(F)c1` [Example 20, 4-{3-[(2-Chlorophenyl)carbonyl]-1H-indol-1-yl}-3-fluorobenzoic acid], under setting [1], the IC50 was below 50 nM. Besides, the inhibition at 1 µM under setting [2] worked out at 95.7%. Also, the inhibition at 10 µM under setting [3] was determined as 100%.
As for `O=C(O)c1ccc(-n2cc(C(=O)c3c(Cl)cccc3C(F)(F)F)c3ccccc32)c(F)c1` [Example 21, 4-{3-[2-Chloro-6-(trifluoromethyl)benzoyl]-1H-indol-1-yl}-3-fluorobenzoic acid], the IC50 is below 50 nM, the inhibition at 1 µM came to 92.2% and the inhibition at 10 µM amounted to 92.4%.
`O=C(O)c1ccc(-n2nc(C(=O)c3c(Cl)cccc3Cl)c3ccccc32)cc1` [Example 29, 4-[3-(2,6-Dichlorobenzoyl)-1H-indazol-1-yl]benzoic acid]: the half-inhibitory concentration (IC50) under setting [1] was below 50 nM. In addition, the inhibition at 1 µM under setting [2] amounted to 96.9%. For the same compound, the inhibition at 10 µM under setting [3] worked out at 94.3%.
For the compound `CCCCOC(=O)c1ccc(-n2cc(C(=O)c3c(Cl)cccc3Cl)c3ccccc32)c(F)c1` [Example 41, Butyl 4-{3-[(2,6-dichlorophenyl)carbonyl]-1H-indol-1-yl}-3-fluorobenzoate], the inhibition at 1 µM was found to be 5.13%.
`O=C(O)c1ccc(-n2cc(C(=O)c3c(Cl)cccc3Cl)c3ccc(F)cc32)c(F)c1` [Example 24, 4-[3-(2,6-Dichlorobenzoyl)-6-fluoro-1H-indol-1-yl]-3-fluorobenzoic acid]: the IC50 under setting [1] was below 50 nM. For the same compound, under setting [2], the inhibition at 1 µM was found to be 95.8%. For the same compound, the inhibition at 10 µM under setting [3] turned out to be 97.8%.
For `O=C(O)c1ccc(-n2nc(Oc3c(Cl)cccc3C(F)(F)F)c3ccccc32)c(F)c1` [Example 7, 4-{3-[2-Chloro-6-(trifluoromethyl)phenoxy]-1H-indazol-1-yl}-3-fluorobenzoic acid], in that order: below 50 nM, 95.3% and 94.8%.

For orientation: IC50 means the midpoint of a concentration-inhibition curve. As usually defined, the inhibition is how much of the control response was suppressed.
